We go through 16 molecules from ChEMBL document CHEMBL4184232, “Novel (S)-1,3,4,12a-tetrahydropyrazino[2,1-c][1,4]benzodiazepine-6,12(2H,11H)-dione derivatives: Selective inhibition of MV-4-11 biphenotypic B myelomonocytic leukemia cells' growth is accompanied by reactive oxygen species overproduction and apoptosis” (Bioorg Med Chem Lett, 2018).

The source made the active and inactive calls. The calls are words filed in the database; no cut-off is given here. Where only a bound is given, the exact number is not on record here.

The test system of test [1] is MV4-11. Description: Antiproliferative activity against human MV4-11 cells incubated for 72 hrs by SRB assay. Format: functional, cell-based. To be noted: MV4-11, 72 h. (In general: In SRB staining, fixed cells bind dye roughly in proportion to their protein.)
For test [2], the system named is UMUC3. Description: Antiproliferative activity against human UM-UC-3 cells incubated for 72 hrs by SRB assay. The format is functional, cell-based. To be noted: UMUC3, 72 h.
The subject of the next test is MDA-MB-231. Description: Antiproliferative activity against human MDA-MB-231 cells incubated for 72 hrs by SRB assay. Format: functional, cell-based. To be noted: MDA-MB-231, 72 h.
The next test deals with MCF7. Description: Antiproliferative activity against human MCF7 cells incubated for 72 hrs by SRB assay. The format is functional, cell-based. To be noted: MCF7, 72 h.
A further test has as its system LoVo. Description: Antiproliferative activity against human LoVo cells incubated for 72 hrs by SRB assay. Format: functional, cell-based.
The next test has as its system HT-29. Description: Antiproliferative activity against human HT-29 cells incubated for 72 hrs by SRB assay. The format is functional, cell-based. To be noted: HT-29, 72 h.
The subject of the next test is A549. Nature of the test: Antiproliferative activity against human A549 cells incubated for 72 hrs by SRB assay. Format: functional, cell-based. To be noted: A549, 72 h.
In the next test the test system is A2780. Nature of the test: Antiproliferative activity against human A2780 cells incubated for 72 hrs by SRB assay. The format is functional, cell-based. To be noted: A2780, 72 h.
The test system of the next test is BALB/3T3. Description: Antiproliferative activity against mouse BALB/3T3 cells incubated for 72 hrs by SRB assay. The format is cell-based. To be noted: BALB/3T3, 72 h.
A further test deals with Calf thymus DNA. Description: Binding affinity to calf thymus DNA assessed as increase in melting temperature incubated for 18 hrs by thermal denaturation study. To be noted: Bos taurus. The format is nucleic-acid assay.
Test [3] relates to MV4-11. Nature of the test: Induction of apoptosis in human MV4-11 cells assessed as increase in caspase-3/7 activity using Ac-DEVD-ACC substrate incubated for 24 hrs by fluorescence based assay. Format: functional, cell-based.
Test [4] concerns UMUC3. Nature of the test: Induction of apoptosis in human UM-UC-3 cells assessed as increase in caspase-3/7 activity at 100 uM using Ac-DEVD-ACC substrate incubated for 24 hrs by fluorescence based assay. The format is functional, cell-based.
Test [5] is described as follows: Ratio of induction of apoptosis in human UM-UC-3 cells assessed as increase in caspase-3/7 activity at 100 uM to induction of apoptosis in human MV4-11 cells assessed as increase in caspase-3/7 activity at 100 uM. Format: functional.
Test [6] deals with MV4-11. Nature of the test: Induction of cell cycle arrest in human MV4-11 cells assessed as reduction in accumulation at G2/M phase at 100 uM incubated for 24 hrs by propidium iodide staining based flow cytometry. The format is functional.
Test [7] has as its system MV4-11. Description: Induction of cell cycle arrest in human MV4-11 cells assessed as reduction in accumulation at S phase at 100 uM incubated for 24 hrs by propidium iodide staining based flow cytometry. Format: functional. For orientation: In flow cytometry, cells or beads pass a laser one at a time.
Test [8] concerns MV4-11. Description: Induction of cell cycle arrest in human MV4-11 cells assessed as increase in accumulation at G0/G1 phase at 100 uM incubated for 24 hrs by propidium iodide staining based flow cytometry. The format is functional.
The test system of test [9] is MV4-11. Description: Induction of cell cycle arrest in human MV4-11 cells assessed as increase in accumulation at subG1 phase at 100 uM incubated for 24 hrs by propidium iodide staining based flow cytometry. The format is functional.
Test [10] deals with UMUC3. Description: Induction of cell cycle arrest in human UM-UC-3 cells assessed as accumulation at G2/M phase at 5 to 100 uM incubated for 24 hrs by propidium iodide staining based flow cytometry. The format is functional.
Test [11] relates to UMUC3. Nature of the test: Induction of cell cycle arrest in human UM-UC-3 cells assessed as accumulation at S phase at 5 to 100 uM incubated for 24 hrs by propidium iodide staining based flow cytometry. Format: functional.
The test system of test [12] is UMUC3. Nature of the test: Induction of cell cycle arrest in human UM-UC-3 cells assessed as accumulation at G0/G1 phase at 5 to 100 uM incubated for 24 hrs by propidium iodide staining based flow cytometry. Format: functional.
For test [13], the system named is MV4-11. Description: Induction of oxidative stress in human MV4-11 cells assessed as increase in ROS production at 5 to 100 uM incubated for 6 hrs by DCF-DA and propidium iodide dye based flow cytometry. The format is functional, cell-based.
In test [14] the test system is UMUC3. Description: Induction of oxidative stress in human UM-UC-3 cells assessed as increase in ROS production at 5 to 100 uM incubated for 6 hrs by DCF-DA and propidium iodide dye based flow cytometry. Format: functional, cell-based.
The subject of another test is P388. Description: Cytotoxicity against mouse P388 cells. The format is functional.
The test system of test [15] is UMUC3. Description: Induction of apoptosis in human UM-UC-3 cells assessed as increase in caspase-3/7 activity at 5 to 100 uM using Ac-DEVD-ACC substrate incubated for 24 hrs by fluorescence based assay. Format: functional, cell-based.
Test [16] concerns UMUC3. Nature of the test: Induction of apoptosis in human UM-UC-3 cells at 5 to 100 uM incubated for 24 hrs by FITC-Annexin V staining based flow cytometry. The format is functional, cell-based.
Test [17] concerns MV4-11. Description: Induction of apoptosis in human MV4-11 cells at 5 to 100 uM incubated for 24 hrs by FITC-Annexin V staining based flow cytometry. The format is functional, cell-based.

`O=C1Nc2ccc(Br)cc2C(=O)N2CCN(C(=O)c3ccc(-c4ccccc4)cc3)C[C@@H]12`: the IC50 – broadly, the concentration needed to halve the response being measured – in the test with MV4-11 [1] worked out at 8.7 µM; in the test on UMUC3 [2], 119 µM; in the test on MDA-MB-231, 113 µM; with MCF7, 57 µM; in the test with LoVo, 22.1 µM; with HT-29 it was 17.9 µM. In addition, the figures for the IC50 in the test with A549, in the test with A2780 and with BALB/3T3 were 48.1 µM, 28.2 µM and 121 µM, respectively.
Turning to `O=C1Nc2ccc(Cl)cc2C(=O)N2CCN(C(=O)c3ccc(-c4ccccc4)cc3)C[C@@H]12`, the IC50 with MV4-11 [1] is 40.7 µM; in the test with UMUC3 [2] it was 94.4 µM; in the test on MDA-MB-231 it was 85.8 µM; in the test on MCF7, 50.9 µM; in the test on LoVo, 28.9 µM; in the test on HT-29, 46.4 µM. The IC50 with A549 was 51 µM; with A2780, 29.7 µM; in the test on BALB/3T3, 105 µM.
In the case of `O=C1Nc2ccccc2C(=O)N2CCN(C(=O)c3ccc(-c4ccccc4)cc3)C[C@H]12`, the IC50 in the test on MV4-11 [1] is 39.6 µM; in the test on UMUC3 [2], 19.6 µM.
On the same counts, the results for `O=C1Nc2ccccc2C(=O)N2CCN(C(=O)c3ccccc3)C[C@@H]12` are 27.1 µM and 10.5 µM.
Take `COc1cc2c(cc1O)NC(=O)[C@@H]1C[C@@H](O)CN1C2=O`: in the test with Calf thymus DNA, the deltaTm is 3.3 K.
`O=C1Nc2ccccc2C(=O)N2CCN(C(=O)c3ccc(Cl)cc3)C[C@H]12`: the figures for the IC50 in the test with MV4-11 [1] and in the test with UMUC3 [2] were 36.7 µM and 22.3 µM, respectively.
`O=C1Nc2ccccc2C(=O)N2CCN(C(=O)c3ccccc3I)C[C@H]12`: the IC50 came out at 39.8 µM with MV4-11 [1] and 13.3 µM in the test with UMUC3 [2].
In the case of `O=C1Nc2ccccc2C(=O)N2CCN(C(=O)c3ccccc3)C[C@H]12`, the IC50 in the test with MV4-11 [1] stood at 28.8 µM; in the test on UMUC3 [2], 24.6 µM.
`O=C1Nc2ccccc2C(=O)N2CCN(C(=O)c3ccc(-c4ccccc4)cc3)C[C@@H]12`: the IC50 is 17.5 µM in the test on MV4-11 [1]; 61.5 µM in the test on UMUC3 [2]; 141 µM in the test with MDA-MB-231; 47.3 µM in the test on MCF7; 55 µM with LoVo; 154 µM with HT-29. The IC50 with A549 is 96.1 µM; with A2780, 35.8 µM; in the test on BALB/3T3 it was 79.6 µM. For the same molecule, in the test on MV4-11 [3], the Activity entry was “Dose-dependent effect”. In addition, the result in the test on UMUC3 [4], with MV4-11 [6], in the test with MV4-11 [7], in the test on MV4-11 [8], in the test with MV4-11 [9] and with MV4-11 [13] was Active. The outcome in the test on UMUC3 [14] was Active. In addition, in [5], the Ratio is given as greater than 2. The outcome in the test on UMUC3 [10], in the test with UMUC3 [11] and in the test on UMUC3 [12] was inactive.
Regarding `O=C1Nc2ccccc2C(=O)N2CCN(C(=O)c3ccc(Cl)cc3)C[C@@H]12`, the IC50 in the test with MV4-11 [1] was found to be 32.3 µM; with UMUC3 [2], 18.2 µM.
As for `O=C1Nc2ccccc2C(=O)N2C=C(c3ccc(Br)cc3)C[C@@H]12`, it took 0.51 µM to inhibit growth in the test with P388 by half (GI50).
Regarding `O=C(c1ccc(-c2ccccc2)cc1)N1CCN2C(=O)c3ccccc3N(Cc3ccccc3)C(=O)[C@@H]2C1`, the half-inhibitory concentration (IC50) in the test with MV4-11 [1] is 10.8 µM; in the test with UMUC3 [2], 136 µM; in the test with MDA-MB-231, 41 µM; in the test with MCF7, 35.8 µM; in the test with LoVo, 11 µM; with HT-29, 144 µM. Besides, the IC50 in the test with A549 came out at 106 µM; in the test on A2780, 62.8 µM; with BALB/3T3, 136 µM. Also, the Activity result with MV4-11 [3], in the test with MV4-11 [13] and with UMUC3 [14] was “Dose-dependent effect” in each case. In addition, the result in the test on UMUC3 [15], in the test with UMUC3 [16], in the test with UMUC3 [10], in the test with UMUC3 [11] and in the test on UMUC3 [12] was inactive. Further, the result with MV4-11 [17], in the test on MV4-11 [6], in the test on MV4-11 [7], in the test on MV4-11 [8] and with MV4-11 [9] was Active.
Consider `O=C(O)CN1C(=O)[C@@H]2CN(C(=O)c3ccc(-c4ccccc4)cc3)CCN2C(=O)c2ccccc21`, for which the 50% inhibitory concentration (IC50) in the test on MV4-11 [1] amounted to 7.6 µM; in the test with UMUC3 [2] it was 3 µM; with MDA-MB-231, 7.8 µM; in the test with MCF7 it was 7.6 µM; in the test on LoVo, 27.6 µM; in the test with HT-29, 17.8 µM. In addition, the half-maximal inhibitory concentration (IC50) was 3.2 µM with A549, 19.6 µM in the test on A2780 and 15 µM in the test with BALB/3T3.
Regarding `O=C(CN1C(=O)[C@@H]2CN(C(=O)c3ccc(-c4ccccc4)cc3)CCN2C(=O)c2ccccc21)OCc1ccccc1`, the IC50 came out at 44.2 µM with MV4-11 [1]; 96.8 µM in the test with UMUC3 [2]; 30.3 µM in the test with MDA-MB-231; 147 µM with MCF7; 23.1 µM in the test on LoVo; 40.1 µM with HT-29. For the same molecule, the IC50 amounted to 34.1 µM in the test on A549, 28 µM in the test on A2780 and 31 µM with BALB/3T3.
With `CN1C(=O)[C@@H]2CN(C(=O)c3ccc(-c4ccccc4)cc3)CCN2C(=O)c2ccccc21`, the half-inhibitory concentration (IC50) was found to be 63.1 µM with MV4-11 [1]; 103 µM in the test with UMUC3 [2]; 134 µM in the test with MDA-MB-231; 77.5 µM with MCF7; 58.3 µM with LoVo; 94.2 µM in the test on HT-29. In addition, the IC50 in the test on A549 worked out at 92 µM; with A2780, 64.5 µM; in the test on BALB/3T3, 37 µM.
Take `O=C1Nc2ccccc2C(=O)N2CCN(C(=O)c3ccccc3I)C[C@@H]12`: the IC50 was found to be 44 µM with MV4-11 [1] and 31.1 µM in the test with UMUC3 [2].
